Here are results for five compounds from BindingDB's records for doi:10.1016/s0960-894x(03)00528-6 (Aston University, 2003).

This assay concerns the target Arachidonate 15-lipoxygenase (Oryctolagus cuniculus). As to the kind of experiment: In vitro inhibitory activity of compound on rabbit reticulocyte 15-lipoxygenase.
Turning to `O=C(Nc1ccc(O)c(O)c1)c1ccc(NCc2ccccc2O)cc1` [N-(3,4-Dihydroxy-phenyl)-4-(2-hydroxy-benzylamino)-benzamide], the IC50 was 1.01 µM.
In turn, `O=C(Nc1ccc(O)c(O)c1)c1ccc(NC(=O)c2ccccc2O)cc1` [N-(4-{[(3,4-dihydroxyphenyl)amino]carbonyl}phenyl)-2-hydroxybenzamide] returned an IC50 of 1.27 µM.
`O=C(CCc1ccc(NC(=O)c2ccccc2O)cc1)Nc1ccc(O)c(O)c1` [N-{4-[2-(3,4-Dihydroxy-phenylcarbamoyl)-ethyl]-phenyl}-2-hydroxy-benzamide] registered a concentration for half-maximal inhibition (IC50) of 1.45 µM.
The same measure for `O=C(/C=C/c1ccc(NC(=O)c2ccccc2O)cc1)Nc1ccc(O)c(O)c1` [N-{4-[2-(3,4-Dihydroxy-phenylcarbamoyl)-vinyl]-phenyl}-2-hydroxy-benzamide]: 1.47 µM.
`O=C(Nc1ccc(NC(=O)c2ccccc2O)cc1)Nc1ccc(O)c(O)c1` [N-{4-[3-(3,4-Dihydroxy-phenyl)-ureido]-phenyl}-2-hydroxy-benzamide] registered an IC50 of 1.51 µM.

Broadly, the IC50 is the point on the concentration scale where inhibition reaches its midpoint. A low value points to higher potency.
